Source: publication PMC4301629 (PLoS ONE, 2015)

What was measured:
[1] = target: T1, α1A-AR (Homo sapiens, UniProt P35348); assay: Ca2+ transient response (FLIPR) in α1A-AR_CHO stable cells; assay type: cell-based; set-up: expressed in transfected cells; details: antagonist at 100 nM
T1 sequence (P35348 1-466): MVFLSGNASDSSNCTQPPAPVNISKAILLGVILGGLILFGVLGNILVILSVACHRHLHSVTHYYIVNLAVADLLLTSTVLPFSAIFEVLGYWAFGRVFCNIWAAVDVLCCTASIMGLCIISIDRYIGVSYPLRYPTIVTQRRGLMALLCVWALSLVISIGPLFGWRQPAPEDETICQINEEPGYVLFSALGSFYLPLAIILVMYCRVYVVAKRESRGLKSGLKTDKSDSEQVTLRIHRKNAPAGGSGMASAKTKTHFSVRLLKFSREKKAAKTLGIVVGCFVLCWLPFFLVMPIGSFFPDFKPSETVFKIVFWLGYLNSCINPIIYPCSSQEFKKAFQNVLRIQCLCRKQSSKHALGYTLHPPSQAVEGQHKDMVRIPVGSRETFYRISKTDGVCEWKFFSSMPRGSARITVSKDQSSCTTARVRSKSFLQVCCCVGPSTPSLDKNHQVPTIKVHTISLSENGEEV
Procedure: Cells were resuspended in Hank’s balanced salt solution (Invitrogen) supplemented with 2 mM CaCl2, 10 mM HEPES pH 7.4, 2.5 mM probenecid, plus 1g/L each of glucose and bovine serum albumin (BSA), and seeded in poly-D-lysine coated 96-well black plates with transparent bottom (Costar) at a density of 50,000 cells/0.1 mL per well. Cells were then incubated for 1 h at 37°C with an additional 0.1 mL of buffer containing 4 μM fluo3-AM that was diluted from a stock solution containing 1 mM fluo3-AM dye in DMSO with 10% pluronic acid. After dye loading incubation, plates were washed twice with 100 μL of buffer and refilled with 100 μL of assay buffer. […] Agonist-evoked Ca^2+ mobilization responses of cell populations were monitored at room temperature simultaneously in all wells of the assay plate using the plate-imaging fluorometric reader FLIPR (MDS Analytical Technologies, Sunnyvale, CA). […] The amplitudes of Ca^2+ transient responses are reported as ΔF/F0, or fold-change in Ca^2+ dye fluorescence relative to the baseline signal ΔF/F0 = (F-F0)/F0 +1 (where ΔF is maximal fluorescence intensity observed following agonist application, F0 = baseline fluorescence, or average intensity measured over the 10 s interval prior to agonist application). […]
IP1, IP2, and IP3 levels were determined via LC-MS. […]

[2] = target: T2, β2-AR (Homo sapiens, UniProt P07550); details: HEK293/EBNA; [125I-CYP] used as radioligand (footnote 1a); cited from earlier work
T2 construct: HEK-293/EBNA cells are known to express β2-AR endogenously; endogenous in cells; host or cells: HEK-293/EBNA (untransduced or negative-control transduced)
T2 sequence (P07550 whole entry): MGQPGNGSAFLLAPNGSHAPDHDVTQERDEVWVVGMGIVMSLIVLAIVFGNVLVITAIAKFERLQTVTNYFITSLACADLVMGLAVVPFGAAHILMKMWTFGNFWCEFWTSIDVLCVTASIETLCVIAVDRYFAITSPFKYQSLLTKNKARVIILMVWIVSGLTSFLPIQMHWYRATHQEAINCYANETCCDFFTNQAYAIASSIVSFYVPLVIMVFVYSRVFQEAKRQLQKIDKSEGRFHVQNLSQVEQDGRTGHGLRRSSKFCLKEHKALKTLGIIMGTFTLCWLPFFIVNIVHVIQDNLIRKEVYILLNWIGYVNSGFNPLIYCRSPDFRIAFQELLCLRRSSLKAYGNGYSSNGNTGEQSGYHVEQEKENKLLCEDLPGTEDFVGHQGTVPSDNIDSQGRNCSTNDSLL

[3] = target: T1, α1A-AR; assay: MAPK activation (AlphaScreen SureFire p-ERK) in α1A-AR transduced HEK-293/EBNA cells; assay type: cell-based; set-up: expressed in transfected cells; host or cells: HEK-293/EBNA (baculovirus transduction, NaBu induction); details: α1A-AR transduced HEK-293/EBNA
Procedure: Prior to experiments, cells were transduced with baculovirus strains designed for transient expression of α1A-AR or aldehyde oxidase (negative control). This was performed by incubating cells with virus (MOI 100–150) for 3 to 4 h, followed by exchange into fresh serum free growth medium supplemented with 4 mM sodium butyrate (NaBu). Cells were grown for another 14 to 18 h and then examined for agonist-evoked responses in transient Ca^2+ release, IP accumulation or pERK activation assays. The surface receptor expression density was determined by flow cytometry via immunofluorescence labeling of an N-terminal HA epitope tag on the receptor and radioligand binding in partially purified membranes.
Graphs shown reflect either pooled or representative data (see figure legends). For concentration-response analysis, results from Ca^2+ mobilization experiments were plotted as ΔF/F0 vs. agonist concentration and fit to a sigmoidal concentration-response equation using the GraphPad Prism software package. […] For radioligand binding experiments, B max values were calculated from maximum binding using the equation B max = (SB × ([…] + [L])/[L]), where SB is the specific binding expressed as fmol per mg of membrane protein, and [L] is the ligand concentration.

[4] = target: T2, β2-AR; assay: cAMP accumulation in untransduced HEK-293/EBNA cells; assay type: cell-based; details: HEK293/EBNA
[5] = test system: HEK293/EBNA cells; assay: IP accumulation (IP-One HTRF) in untransduced HEK-293/EBNA cells; assay type: cell-based
[6] = target: T2, β2-AR; details: HEK293/EBNA; read-out: EC50 Ca2+; cited from earlier work
[7] = target: T1, α1A-AR; assay: Translocation of GFP-tagged β-arrestin-1/2 in HEK293 cells expressing FLAG-α1A-AR (confocal microscopy); assay type: cell-based; set-up: expressed in transfected cells; host or cells: HEK-293/EBNA (baculovirus transduction, NaBu induction); details: HEK293, 1 μM A-61603 or 1 mM Iso
Procedure: HEK293 cells were transiently co-transfected with FLAG-tagged α1A – AR and one of the following GFP-tagged proteins: Rab5 (Rab5 Q79L) variant, Rab11 (Rab11 S25N) variant, β-arrestin-1 or β-arrestin-2. Rab5 and Rab11 were kindly provided by Dr. Marino Zerial (Max Planck Institute of Molecular Cell Biology and Genetics, Dresden, Germany). […] After treatment, cells were fixed with freshly prepared 3.7% paraformaldehyde in PBS for 15 min at room temperature. Subsequently, cells were permeabilized with 0.1% Triton X-100 (Sigma-Aldrich) in PBS for 5 min, followed by nonspecific binding site blocking with 3% normal serum (Santa Cruz Biotechnology) in PBS for 1 h. Incubation with Alexa Fluor-568 conjugated anti-FLAG antibodies in blocking solution was done as directed by the manufacturer. Confocal microscopy was performed using a Zeiss LSM 510 META laser scanning microscope (Carl Zeiss, Inc., Thornwood, NY) equipped with a 60X objective, using the following laser wavelengths: excitation at 488 nm and emission at 505–530 nm; excitation at 543 nm and emission at 560–615 nm.
HEK293 cells were co-transfected with FLAG-tagged α1A – AR and GFP- tagged β-arrestin-1 (left panels) or β-arrestin-2 (right panels). […] Cells were then fixed, permeabilized, stained with Alexa Fluor-568 conjugated anti-FLAG antibodies, and analyzed employing confocal microscopy.

[8] = target: T1, α1A-AR; assay: LC-MS detection of IP1, IP2 and IP3 in α1A-AR transduced HEK-293/EBNA cells; assay type: cell-based; set-up: expressed in transfected cells; host or cells: HEK-293/EBNA (baculovirus transduction, NaBu induction); details: Iso up to 10 mM
Procedure: (§1) Virally transduced HEK-293/EBNA cells were resuspended in growth medium and seeded in poly-D-lysine coated 96-well black plates at a density of 100,000 cells/0.1 mL per well, Cells were allowed to attach for 2 hours at 37°C in a humidified atmosphere of 95% air and 5% CO2. After that, the medium was replaced with agonist solution in assay buffer (20 mM HEPES, 10 mM glucose, 1.8 mM CaCl2, 0.5 mM MgSO4, in HBSS 1X buffer, 50 mM LiCl) and cells were incubated at 37°C for 30 min. Stimulation was stopped by exchange of assay buffer with lysis buffer (100 μL 0.1N HCl/MeOH), and lysis proceeded for 30 min at 4°C. Cellular levels of inositol phosphates were determined using a Thermo LC-MS detection system following a published protocol. Chromatography was performed employing a BioBasic column AX (50 × 2.1 mm, Thermo). The mobile phase consisted of solvent A: 10 mM ammonium acetate, pH 6 in 30/70 acetonitrile/water, and solvent B: 1 mM ammonium acetate, pH 11 in 30/70 acetonitrile/water. A gradient solvent system was used starting with 0% solvent B, and analytes were eluted by increasing solvent B to 100% over 3 min. Each data point represents the average of triplicate determinations and each experiment was performed at least three times independently.

[9] = target: T2, β2-AR; assay: MAPK activation (AlphaScreen SureFire p-ERK) in untransduced HEK-293/EBNA cells; assay type: cell-based; details: HEK293/EBNA
[10] = target: T1, α1A-AR; assay: LC-MS detection of IP1, IP2 and IP3 in α1A-AR_CHO stable cells; assay type: cell-based; set-up: expressed in transfected cells; details: α1A-AR CHO, Iso up to 1 mM
Procedure: as §1, with “After” for “Virally transduced HEK-293/EBNA cells were resuspended in growth medium and seeded in poly-D-lysine coated 96-well black plates at a density of 100,000 cells/0.1 mL per well, Cells were allowed to attach for 2 hours at 37°C in a humidified atmosphere of 95% air and 5% CO2. After”
IP1, IP2, and IP3 levels were determined via LC-MS. Plots are representative of three independent experiments with each data point being the average of triplicates.

| effect of antagonist pretreatment on Iso Ca2+ response [1] | SMILES | Ki [2] [µM] | times more potent at inducing p-ERK formation than Ca2+ mobilization [3] [times] | EC50 cAMP [4] | EC50 IP ([5]; HEK293/EBNA untransduced) | IP formation ([5]; untransduced cells, data not shown) | EC50 [6] [µM] | translocation of β-arrestin-1 / β-arrestin-2 [7] | cellular levels of inositol phosphates IP1, IP2 and IP3 [8] | EC50 p-ERK [9] | cellular concentration of inositol phosphates IP1, IP2 and IP3 [10] |
| --- | --- | --- | --- | --- | --- | --- | --- | --- | --- | --- | --- |
| insensitive | CC(C)NCC(O)COc1cccc2ccccc12 (centres unmarked) [propranolol] | – | – | – | – | – | – | – | – | – | – |
| – | CS(=O)(=O)Nc1c(O)ccc2c1CCCC2C1=NCCN1 (centres unmarked) [A-61603] | 24 | ~4 | BQL | BQL | not detectable | 0.003 | did not induce significant translocation | concentration-dependent increases | BQL | concentration-dependent increases |
